Active and inactive are the calls of the source. No cut-off for these calls is given here.
Experiments:
[1] = molecular target: T1, Bromodomain-containing protein 4 (Homo sapiens, UniProt O60885); assay: Binding affinity to recombinant human N-terminal hexaHis-tagged BRD4 expressed in Escherichia coli BL21 (DE3) cells by ITC analysis
[2] = molecular target: T2, Bromodomain testis-specific protein (Homo sapiens, UniProt Q58F21); assay: Binding affinity to recombinant human N-terminal hexaHis-tagged BRDT expressed in Escherichia coli BL21 (DE3) cells by qPCR assay
[3] = molecular target: T2, Bromodomain testis-specific protein; assay: Binding affinity to recombinant human N-terminal hexaHis-tagged BRDT expressed in Escherichia coli BL21 (DE3) cells by MST assay
[4] = molecular target: T2, Bromodomain testis-specific protein; assay: Binding affinity to recombinant human N-terminal hexaHis-tagged BRDT expressed in Escherichia coli BL21 (DE3) cells by ITC analysis
[5] = system: HEK-293T; assay: Inhibition of cell growth in HEK293T cells incubated for 72 hrs by CellTiter-blue reagent based assay; format: functional; conditions: Homo sapiens
[6] = molecular target: T1, Bromodomain-containing protein 4; assay: Binding affinity to recombinant human N-terminal hexaHis-tagged BRD4 expressed in Escherichia coli BL21 (DE3) cells by qPCR assay
[7] = molecular target: T2, Bromodomain testis-specific protein
Description: Binding affinity to recombinant human N-terminal hexaHis-tagged BRDT expressed in Escherichia coli BL21 (DE3) cells assessed as change in melting temperature by DSF assay

[8] = molecular target: T1, Bromodomain-containing protein 4; assay: Binding affinity to recombinant human N-terminal hexaHis-tagged BRD4 expressed in Escherichia coli BL21 (DE3) cells by MST assay
[9] = molecular target: T1, Bromodomain-containing protein 4
Description: Binding affinity to recombinant human N-terminal hexaHis-tagged BRD4 expressed in Escherichia coli BL21 (DE3) cells assessed as change in melting temperature by DSF assay

[10] = system: MM1.S; assay: Inhibition of cell growth in human MM1.S cells incubated for 72 hrs by CellTiter-blue reagent based assay; format: functional
[11] = molecular target: Serine/threonine-protein kinase PLK1 (Homo sapiens) (UniProt P53350); conditions: MM1.S, dose 30-100 nM, time 6.0 hrs
Chain of Serine/threonine-protein kinase PLK1 (Homo sapiens) (P53350 whole entry): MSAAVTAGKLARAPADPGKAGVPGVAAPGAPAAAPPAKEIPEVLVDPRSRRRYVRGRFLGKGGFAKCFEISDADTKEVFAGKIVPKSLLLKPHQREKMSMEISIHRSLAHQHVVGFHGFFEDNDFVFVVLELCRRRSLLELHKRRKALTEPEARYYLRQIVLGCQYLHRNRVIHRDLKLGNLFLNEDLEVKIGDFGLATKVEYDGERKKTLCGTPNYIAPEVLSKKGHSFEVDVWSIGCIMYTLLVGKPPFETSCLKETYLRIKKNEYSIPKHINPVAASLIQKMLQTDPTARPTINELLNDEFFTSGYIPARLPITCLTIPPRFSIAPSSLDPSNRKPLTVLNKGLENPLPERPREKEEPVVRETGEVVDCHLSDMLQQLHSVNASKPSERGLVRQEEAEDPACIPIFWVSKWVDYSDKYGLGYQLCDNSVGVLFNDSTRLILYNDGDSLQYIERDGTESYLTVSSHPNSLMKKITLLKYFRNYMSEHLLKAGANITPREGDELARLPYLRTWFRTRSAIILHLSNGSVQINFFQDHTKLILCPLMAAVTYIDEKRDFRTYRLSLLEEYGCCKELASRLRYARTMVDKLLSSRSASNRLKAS

Structure (SMILES)	Kd [1]	Kd [2]	Kd [3]	Kd [4]	IC50 [5]	Kd [6]	ΔTm [7]	Kd [8]	ΔTm [9]	IC50 [10]	inhibition [11]
CCOc1cc(N2CCC(O)CC2)ccc1Nc1ncc2c(n1)N(C)c1ccccc1C(=O)N2C	735 nM	675 nM	3500 nM	4200 nM	> 10000 nM	205 nM	2.9 °C	800 nM			
CCOc1cc(C(=O)N2CCC(N3CCN(C)CC3)CC2)ccc1Nc1ncc2c(n1)N(C1CCCC1)c1ccccc1C(=O)N2C	213 nM	500 nM	1600 nM	2100 nM	> 10000 nM	69 nM	2.3 °C	205 nM	7.3 °C	280 nM	
COc1cc(C(=O)N2CCC(N3CCN(C)CC3)CC2)ccc1Nc1ncc2c(n1)N(C)c1ccccc1C(=O)N2C					2800 nM		3.8 °C			530 nM	inactive
Cc1sc2c(c1C)C(c1ccc(Cl)cc1)=N[C@@H](CC(=O)OC(C)(C)C)c1nnc(C)n1-2										33 nM	inactive
CC[C@@H]1C(=O)N(C)c2cnc(Nc3ccc(C(=O)N[C@H]4CC[C@H](N5CCN(CC6CC6)CC5)CC4)cc3OC)nc2N1C(C)C [VOLASERTIB]	317 nM	113 nM	1030 nM	1700 nM	1.1 nM	77 nM	5 °C	169 nM		4.5 nM	Active
C[C@@H](Oc1cc(-n2cnc3ccc(CN4CCN(C)CC4)cc32)sc1C(N)=O)c1ccccc1C(F)(F)F											Active
Cc1cnc(Nc2ccc(C(=O)NC3CCN(C)CC3)c(F)c2)nc1Nc1ccc(Cl)c(NS(=O)(=O)C(C)(C)C)c1	54 nM			59 nM	140 nM	12 nM	11.9 °C		13.5 °C	26 nM	
